Reference: ChEMBL document CHEMBL4196065, “Design and synthesis of new hybrids from 2-cyano-3,12-dioxooleana- 9-dien-28-oic acid and O2-(2,4-dinitrophenyl) diazeniumdiolate for intervention of drug-resistant lung cancer” (Eur J Med Chem, 2018)
Activity calls are given as the source filed them. The calls are words filed in the database; no cut-off is given here.

Legend:
[1] = system: A549/TR; assay: Antiproliferative activity against human A549/TR cells after 72 hrs by MTT assay; assay type: functional, cell-based
[2] = system: A549/TR; assay: Antiproliferative activity against human A549/TR cells at 1 uM after 72 hrs by MTT assay; assay type: functional
[3] = Resistant factor, ratio of IC50 for human A549/TR cells to IC50 for human A549 cells; assay type: functional
[4] = system: A549; assay: cells; settings: Homo sapiens, A549, 72 h
Description: Antiproliferative activity against human A549 cells after 72 hrs by MTT assay

[5] = system: A549/TR; assay: Induction of apoptosis in human A549/TR cells after 24 hrs by Annexin-V-FITC/propidium iodide staining-based flow cytometric analysis; assay type: functional, cell-based
[6] = system: A549/TR; assay: Cell cycle arrest in human A549/TR cells after 24 hrs by propidium iodide/RNase-staining based flow cytometric analysis; assay type: functional
[7] = system: A549/TR; assay: Induction of apoptosis in human A549/TR cells assessed as necrotic cells at 2.4 uM after 24 hrs by Annexin-V-FITC/propidium iodide staining-based flow cytometric analysis (reference value: 0.22%); assay type: functional
[8] = system: A549/TR; assay: Cell cycle arrest in human A549/TR cells assessed as accumulation at G0/G1 phase at 2.4 uM after 24 hrs by propidium iodide/RNase-staining based flow cytometric analysis (reference value: 62.5%); assay type: functional
[9] = system: A549/TR; assay: Induction of apoptosis in human A549/TR cells assessed as early apoptotic cells at 1.2 uM after 24 hrs by Annexin-V-FITC/propidium iodide staining-based flow cytometric analysis (reference value: 3.42%); assay type: functional
[10] = system: A549/TR; assay: Induction of apoptosis in human A549/TR cells assessed as late apoptotic cells at 4.8 uM after 24 hrs by Annexin-V-FITC/propidium iodide staining-based flow cytometric analysis (reference value: 1.24%); assay type: functional
[11] = system: A549/TR; assay: Cell cycle arrest in human A549/TR cells assessed as accumulation at G2/M phase at 2.4 uM after 24 hrs by propidium iodide/RNase-staining based flow cytometric analysis (reference value: 24.7%); assay type: functional
[12] = system: A549/TR; assay: Cell cycle arrest in human A549/TR cells assessed as accumulation at G0/G1 phase at 1.2 uM after 24 hrs by propidium iodide/RNase-staining based flow cytometric analysis (reference value: 62.5%); assay type: functional
[13] = system: A549/TR; assay: Induction of apoptosis in human A549/TR cells assessed as viable cells at 1.2 uM after 24 hrs by Annexin-V-FITC/propidium iodide staining-based flow cytometric analysis (reference value: 95.1%); assay type: functional; settings: read-out: Activity
[14] = Potency index, ratio of taxol IC50 to compound IC50 for antiproliferative activity against human A549/TR cells; assay type: functional
[15] = system: A549/TR; assay: Growth inhibition of human A549/TR cells at 1 uM after 72 hrs in presence of NO scavenger hemoglobin by MTT assay; assay type: functional
[16] = system: A549/TR; assay: Growth inhibition of human A549/TR cells at 1 uM after 72 hrs in presence of ROS scavenger NAC by MTT assay; assay type: functional
[17] = system: MRC5; assay: Antiproliferative activity against human MRC5 cells after 72 hrs by MTT assay; assay type: cell-based; settings: MRC5, 72 h
[18] = system: A549/TR; assay: Induction of ROS generation in human A549/TR cells after 24 hrs by DCFH-DA dye-based flow cytometric analysis; assay type: functional, cell-based
[19] = system: A549/TR; assay: Cell cycle arrest in human A549/TR cells assessed as accumulation at G0/G1 phase at 4.8 uM after 24 hrs by propidium iodide/RNase-staining based flow cytometric analysis (reference value: 62.5%); assay type: functional
[20] = system: A549/TR; assay: Induction of apoptosis in human A549/TR cells assessed as necrotic cells at 1.2 uM after 24 hrs by Annexin-V-FITC/propidium iodide staining-based flow cytometric analysis (reference value: 0.22%); assay type: functional
[21] = system: A549/TR; assay: Cell cycle arrest in human A549/TR cells assessed as accumulation at G2/M phase at 4.8 uM after 24 hrs by propidium iodide/RNase-staining based flow cytometric analysis (reference value: 24.7%); assay type: functional
[22] = system: A549/TR; assay: Cell cycle arrest in human A549/TR cells assessed as accumulation at G2/M phase at 1.2 uM after 24 hrs by propidium iodide/RNase-staining based flow cytometric analysis (reference value: 24.7%); assay type: functional
[23] = system: A549/TR; assay: Induction of apoptosis in human A549/TR cells assessed as viable cells at 4.8 uM after 24 hrs by Annexin-V-FITC/propidium iodide staining-based flow cytometric analysis (reference value: 95.1%); assay type: functional; settings: read-out: Activity
[24] = system: A549/TR; assay: Induction of apoptosis in human A549/TR cells assessed as early apoptotic cells at 4.8 uM after 24 hrs by Annexin-V-FITC/propidium iodide staining-based flow cytometric analysis (reference value: 3.42%); assay type: functional
[25] = system: A549/TR; assay: Downregulation of Lon expression in human A549/TR cells after 24 hrs by Western blot analysis; assay type: functional, cell-based
[26] = system: A549/TR; assay: Induction of nitric oxide production in human A549/TR cells at 50 uM after 6 hrs by Griess assay; assay type: functional, cell-based
[27] = system: MRC5; assay: Induction of nitric oxide production in human MRC5 cells at 50 uM after 6 hrs by Griess assay; assay type: cell-based; settings: mrc5, 6 h
[28] = system: A549/TR; assay: Induction of apoptosis in human A549/TR cells assessed as viable cells at 2.4 uM after 24 hrs by Annexin-V-FITC/propidium iodide staining-based flow cytometric analysis (reference value: 95.1%); assay type: functional; settings: read-out: Activity
[29] = system: A549/TR; assay: Growth inhibition of human A549/TR cells at 1 uM after 72 hrs in presence of GSTpi inhibitor etacrynic acid by MTT assay; assay type: functional
[30] = system: A549/TR; assay: Induction of apoptosis in human A549/TR cells assessed as late apoptotic cells at 2.4 uM after 24 hrs by Annexin-V-FITC/propidium iodide staining-based flow cytometric analysis (reference value: 1.24%); assay type: functional
[31] = system: A549/TR; assay: Induction of apoptosis in human A549/TR cells assessed as necrotic cells at 4.8 uM after 24 hrs by Annexin-V-FITC/propidium iodide staining-based flow cytometric analysis (reference value: 0.22%); assay type: functional
[32] = system: A549/TR; assay: Induction of apoptosis in human A549/TR cells assessed as late apoptotic cells at 1.2 uM after 24 hrs by Annexin-V-FITC/propidium iodide staining-based flow cytometric analysis (reference value: 1.24%); assay type: functional
[33] = system: A549/TR; assay: Induction of apoptosis in human A549/TR cells assessed as early apoptotic cells at 2.4 uM after 24 hrs by Annexin-V-FITC/propidium iodide staining-based flow cytometric analysis (reference value: 3.42%); assay type: functional
[34] = system: A549/TR; assay: Downregulation of Lon expression in human A549/TR cells at 4.8 uM after 24 hrs by Western blot analysis; assay type: functional, cell-based
[35] = system: A549/TR; assay: Induction of ROS generation in human A549/TR cells at 2.4 to 9.6 uM after 24 hrs by DCFH-DA dye-based flow cytometric analysis; assay type: functional, cell-based

SMILES | IC50 [1] [µM] | IC50 [4] [µM] | Activity [2] [%] | Ratio IC50 [3] | Activity [7] [%] | Activity [8] [%] | Activity [9] [%] | Activity [10] [%] | Activity [11] [%] | Activity [12] [%] | viability at 1.2 µM [13] [%] | Activity [19] [%] | Activity [20] [%] | Activity [21] [%] | Activity [22] [%] | viability at 4.8 µM [23] [%] | Activity [24] [%] | Activity [26] | Activity [27] | viability at 2.4 µM [28] [%] | other results
C[C@H](N)C(=O)OCCN(C)/[N+]([O-])=N/Oc1cc(NCCOC(=O)[C@]23CCC(C)(C)C[C@H]2[C@H]2C(=O)C=C4[C@@]5(C)C=C(C#N)C(=O)C(C)(C)[C@@H]5CC[C@@]4(C)[C@]2(C)CC3)c([N+](=O)[O-])cc1[N+](=O)[O-] | 1.09 | 1.44 | >50 | 0.8 |  |  |  |  |  |  |  |  |  |  |  |  |  |  |  |  | 
CC(=O)O[C@H]1C(=O)[C@@]2(C)[C@H]([C@H](OC(=O)c3ccccc3)[C@]3(O)C[C@H](OC(=O)[C@H](O)[C@@H](NC(=O)c4ccccc4)c4ccccc4)C(C)=C1C3(C)C)[C@]1(OC(C)=O)CO[C@@H]1C[C@@H]2O [PACLITAXEL] | 3.11 | 0.007 |  | 445 |  |  |  |  |  |  |  |  |  |  |  |  |  |  |  |  | 
CN(CCO)/[N+]([O-])=N/Oc1cc(NCCOC(=O)[C@]23CCC(C)(C)C[C@H]2[C@H]2C(=O)C=C4[C@@]5(C)C=C(C#N)C(=O)C(C)(C)[C@@H]5CC[C@@]4(C)[C@]2(C)CC3)c([N+](=O)[O-])cc1[N+](=O)[O-] | 0.82 | 1.44 | >50 | 0.6 |  |  |  |  |  |  |  |  |  |  |  |  |  |  |  |  | 
COC(=O)[C@]12CCC(C)(C)C[C@H]1[C@H]1C(=O)C=C3[C@@]4(C)C=C(C#N)C(=O)C(C)(C)[C@@H]4CC[C@@]3(C)[C@]1(C)CC2 [BARDOXOLONE METHYL] | 1.7 | 2.07 |  | 0.8 | 0.13 | 54.7 | 4.06 | 3.03 | 32.1 | 62.3 | 94.9 | 47.4 | 0.14 | 39.4 | 24.9 | 83.4 | 7.36 | inactive | Non-Toxic | 91.8 | Activity [34]: Active; Activity [30]: 1.95%; Activity [31]: 0.17%; Activity [35]: Active; Activity [32]: 0.8%; Activity [33]: 6.14%
CCOC(=O)N1CCN(/[N+]([O-])=N/Oc2ccc([N+](=O)[O-])cc2[N+](=O)[O-])CC1 | 1.99 | 2.31 |  | 0.9 | 0.37 | 54.4 | 6.75 | 4.19 | 32 | 65.3 | 90.5 | 47.7 | 0.34 | 38.7 | 24.5 | 87 | 7.76 | Active | Toxic | 92.1 | Activity [34]: Active; Activity [30]: 1.94%; Activity [31]: 1.04%; Activity [35]: Active; Activity [32]: 2.38%; Activity [33]: 5.63%

The next lines start with results.

IC50 [1] [µM] | IC50 [4] [µM] | SMILES | Activity [2] [%] | Ratio IC50 [3] | Activity [7] [%] | Activity [8] [%] | Activity [9] [%] | Activity [10] [%] | Activity [11] [%] | Activity [12] [%] | viability at 1.2 µM [13] [%] | Activity [19] [%] | Activity [20] [%] | Activity [21] [%] | Activity [22] [%] | viability at 4.8 µM [23] [%] | Activity [24] [%] | Activity [26] | Activity [27] | viability at 2.4 µM [28] [%] | other results
0.941 | 1.08 | CC1(C)CC[C@]2(C(=O)N3CCN(c4cc(O/N=[N+](\[O-])N5CCOCC5)c([N+](=O)[O-])cc4[N+](=O)[O-])CC3)CC[C@]3(C)[C@H](C(=O)C=C4[C@@]5(C)C=C(C#N)C(=O)C(C)(C)[C@@H]5CC[C@]43C)[C@@H]2C1 | >50 | 0.9 |  |  |  |  |  |  |  |  |  |  |  |  |  |  |  |  | 
0.349 | 1.07 | CN(CCO)/[N+]([O-])=N/Oc1cc(N2CCN(C(=O)[C@]34CCC(C)(C)C[C@H]3[C@H]3C(=O)C=C5[C@@]6(C)C=C(C#N)C(=O)C(C)(C)[C@@H]6CC[C@@]5(C)[C@]3(C)CC4)CC2)c([N+](=O)[O-])cc1[N+](=O)[O-] | >50 | 0.3 | 2.78 | 47.9 | 5.11 | 21.4 | 38.9 | 61.3 | 91.6 | 39.4 | 0.27 | 48.3 | 28.3 | 59.7 | 15.8 | Active | Toxic | 70 | Activity [5]: Dose-dependent effect; Activity [6]: Dose-dependent effect; Ratio IC50 [14]: 10; growth inhibition (GI) [15]: inactive; growth inhibition (GI) [16]: inactive; IC50 [17]: 1.6 µM; Activity [18]: Dose-dependent effect; Activity [25]: Dose-dependent effect; growth inhibition (GI) [29]: inactive; Activity [30]: 14.4%; Activity [31]: 3.15%; Activity [32]: 3.09%; Activity [33]: 12.8%
0.697 | 1.07 | C[C@H](N)C(=O)OCCN(C)/[N+]([O-])=N/Oc1cc(N2CCN(C(=O)[C@]34CCC(C)(C)C[C@H]3[C@H]3C(=O)C=C5[C@@]6(C)C=C(C#N)C(=O)C(C)(C)[C@@H]6CC[C@@]5(C)[C@]3(C)CC4)CC2)c([N+](=O)[O-])cc1[N+](=O)[O-] | >50 | 0.7 |  |  |  |  |  |  |  |  |  |  |  |  |  |  |  |  | 
